{"source": "patent US10426757B2", "about": "“Compositions and methods for promoting intestinal stem cell and/or non-stem progenitor cell function” (Whitehead Institute for Biomedical Research, priority 2014, dated 2019)", "key": {"[1]": {"test_system": "Olfm4+ ISCs and Cryptdin 4+ Paneth cells", "experiment": "In situ hybridization for Olfm4 and Cryptdin 4, proximal jejunum", "format": "in vivo, mouse", "conditions": "GW501516-treated mice vs vehicle", "excerpt": "The in situ hybridization probes used in this study correspond to expressed sequence tags or fully sequenced cDNAs obtained from Open Biosystems. The accession numbers (IMAGE mouse cDNA clone in parenthesis) for these probes are as follows: mouse Olfm4 BC141127 (9055739), mouse Cryptdin 4 BC134360 (40134597). Both sense and antisense probes were generated to ensure specificity by in vitro transcription using DIG RNA labelling mix (Roche) according to the manufacturer's instructions and to previously published detailed methods.^24,44"}, "β-catenin target genes": {"test_system": "β-catenin target genes", "experiment": "Single cell qPCR of β-catenin target genes", "format": "in vivo, mouse", "conditions": "ISCs and progenitors from GW501516-treated mice", "protocol": "For one-tube single-cell sequence-specific pre-amplification, individual primer sets of β-catenin target genes (total of 96) were pooled to 0.1 mM final concentration for each primer. Single cells were directly sorted into 96 well plates containing 5 ul RT-PCR master mix (2.5 ul CellsDirect reaction mix, Invitrogen; 0.5 ul primer pool; 0.1 ul RT/Taq enzyme, Invitrogen; 1.9 ul nuclease free water) in each well. Immediately after, plates were placed on PCR machine for pre-amplification. Sequence specific pre-amplification PCR protocol was as following: 1) 60 minutes at 50° C. for cell lyses and sequence specific reverse transcription, 2) 3 minutes at 95° C. for reverse transcriptase inactivation and Taq polymerase activation. Then, cDNA was amplified by 20 cycles of 15 seconds at 95° C. for initial denaturation, […] at 60° C. for annealing and elongation. After pre-amplification, samples were diluted 1:5 prior to high throughput microfluidic real time PCR analysis using Fluidgm platform. […] Threshold crossing (Ct) values were calculated using the BioMark Real-Time PCR Analysis software (Fluidgm). […] Fold-changes were calculated as the difference of median of log2 expression levels for the two cell populations. […]"}, "aged crypts": {"test_system": "aged crypts", "experiment": "Stem cell frequency and organoid formation in aged mice", "format": "in vivo, mouse", "protocol": "(§1) Isolated ISCs or progenitor cells were centrifuged for 5 minutes at 250 g, re-suspended in the appropriate volume of crypt culture medium (500-1,000 cells μl^−1), then seeded onto 25-30 μl Matrigel™ (Corning 356231 growth factor reduced) containing 1 μM jagged (Ana-Spec) in a flat bottom 48-well plate (Corning 3548). Alternatively, ISCs and Paneth cells were mixed after sorting in a 1:1 ratio, centrifuged, and then seeded onto Matrigel™. The Matrigel™ and cells were allowed to solidify before adding 300 μl of crypt culture medium. The crypt media was changed every second or third day. Organoid bodies were quantified on days 3, 7 and 10 of culture, unless otherwise specified. With respect to the study results presented in FIGS. 14-16, organoid bodies were quantified on day 3-4. In secondary experiments, individual primary organoids were mechanically dissociated and re-plated, or organoids were dissociated for 10 minutes in TrypLE Express at 32° C., re-suspended with SMEM (Life Technologies), centrifuged and re-suspended in cold SMEM with viability dye 7-AAD. Live cells were sorted and seeded onto Matrigel™ as previously described. With respect to the study results presented in FIGS. 14-16, young mice were 2-4 months old. Old mice range from 18-25 months of age. The mice were on a standard chow diet. Mice received a single daily injection with the indicated amount of GW501516 or vehicle in the afternoon. Intestines were harvested the following morning."}, "small intestinal crypts": {"test_system": "small intestinal crypts", "experiment": "Crypt organoid-forming (clonogenicity) assay in 3-D culture", "format": "cell-based, mouse", "conditions": "crypts from GW501516-treated mice vs vehicle"}, "β-catenin": {"test_system": "β-catenin", "experiment": "β-catenin nuclear localization by immunostaining", "format": "in vivo, mouse", "conditions": "GW501516-treated mice vs vehicle"}, "Lgr5-GFP^hi ISCs": {"test_system": "Lgr5-GFP^hi ISCs", "experiment": "Organoid formation by sorted Lgr5-GFP^hi ISCs with or without Paneth cells", "format": "cell-based, mouse", "conditions": "ISCs from GW501516-treated mice, no Paneth cells, vs vehicle; listed as GW501515", "protocol": "as §1, with “described.” for “described. With respect to the study results presented in FIGS. 14-16, young mice were 2-4 months old. Old mice range from 18-25 months of age. The mice were on a standard chow diet. Mice received a single daily injection with the indicated amount of GW501516 or vehicle in the afternoon. Intestines were harvested the following morning.”"}}, "note": "Entries after “also recorded” stand apart in the source; their conditions may differ."}
{"smiles": "Cc1cc(SCc2sc(-c3ccc(C(F)(F)F)cc3)nc2C)ccc1OCC(=O)O", "note": "[GW501516, 2-[2-methyl-4-[[4-methyl-2-[4-(trifluoromethyl)phenyl]-1,3-thiazol-5-yl]methylsulfanyl]phenoxy]acetic acid]", "values": [{"measurement": "Cryptdin 4+ Paneth cell numbers", "setting": "[1]", "result": "no impact; also recorded: remained unchanged"}, {"measurement": "Olfm4+ ISC numbers per jejunal crypt", "setting": "[1]", "result": "augmented; also recorded: increased"}, {"measurement": "transcription of β-catenin target genes (Bmp4, Jag1, Jag2, Edn3)", "setting": "β-catenin target genes", "result": "induction"}, {"measurement": "organoid formation of co-cultured ISCs and Paneth cells from aged animals", "setting": "aged crypts; GW501516 vs old vehicle, day 3", "result": "significantly boosts organoid formation"}, {"measurement": "frequency of organoid formation in aged crypts", "setting": "aged crypts; aged mice, GW501516 treatment", "result": "increases the frequency of organoid formation"}, {"measurement": "frequency of stem cells", "setting": "aged crypts; aged mice, GW501516 treatment", "result": "increases the frequency of stem cells"}, {"measurement": "organoid-forming capacity of intestinal crypts", "setting": "small intestinal crypts", "result": "more organoids; also recorded: boosted the organoid-forming capacity"}, {"measurement": "nuclear β-catenin in stem and progenitor cells of crypts (intestinal sections)", "setting": "β-catenin", "result": "increased nuclear β-catenin localization"}, {"measurement": "nuclear β-catenin localization in flow sorted ISCs and progenitors", "setting": "β-catenin", "result": "increased nuclear β-catenin localization"}, {"measurement": "nuclear β-catenin in stem and progenitor cells of crypts (intestinal sections)", "setting": "β-catenin; listed as PPAR-δ agonist", "result": "greater percentage"}, {"measurement": "nuclear β-catenin localization in flow sorted ISCs and progenitors", "setting": "β-catenin; listed as PPAR-δ agonist", "result": "more nuclear β-catenin accumulation"}, {"measurement": "Paneth cell-independent organoid-initiating capacity of Lgr5-GFP^hi ISCs", "setting": "Lgr5-GFP^hi ISCs", "result": "sufficient to enhance"}]}
